What is called IC50 is the point on the concentration scale where inhibition reaches its midpoint.

Molecules are shown by their SMILES.

The experiment addresses Bruton's Tyrosine Kinase (Homo sapiens, UniProt Q06187). Briefly: Bruton's Tyrosine Kinase (BTK) inhibition TR-FRET competition assay. The format is binding. The procedure:
This BTK competition assay measures compound potency (IC50) for the inactivated state of Bruton's Tyrosine Kinase using FRET (Firster/Fluorescence Resonance Energy Transfer) technology. The BTK-Eu complex was incubated on ice one hour prior to use at a starting concentration of 50 nM BTK-Bioease™: 10 nM Eu-streptavidin (Perkin-Elmer Catalog#AD0062). The assay buffer consisted of 20 mM HEPES (pH 7.15), 0.1 mM DTT, 10 mM MgCl2, 0.5 mg/ml BSA with 3% Kinase Stabilizer (Fremont Biosolutions, Catalog #STB-K02). After 1 h, the reaction mixture from above was diluted 10 fold in assay buffer to make 5 nM BTK: InM Eu-Streptavidin complex (donor fluorophore). 18 l of a mixture of 0.11 nM BTK-Eu and 0.11 nM Kinase Tracer 178 (Invitrogen, Catalog #PV5593,) with BTK-Eu alone as no negative control, was then dispensed into 384-well flat bottom plates (Greiner, 784076). Compounds to be tested in assay were prepared as 10× concentrations and serial dilution in half-log increments was performed in DMSO so as to generate 10 point curves. To initiate the FRET reaction, compounds prepared as 10× stock in DMSO was added to the plates and the plates were incubated 18-24 h at 14° C.
After the incubation the plates were read on a BMG Pherastar Fluorescent plate reader (or equivalent) and used to measure the emission energy from the europium donor fluorophore (620 nm emission) and the FRET (665 nm emission). The negative control well values were averaged to obtain the mean minimum. The positive “no inhibitor” control wells were averaged to obtain the mean maximum. Percent of maximal FRET was calculated using following equation:
% max FRET=100×[(FSRcmpd−FSRmean min)/(FSRmean max−FSRmean min)]
where FSR=FRET Signal ratio. % Max FRET curves were plotted in Activity Base (Excel) and the IC50(%), hill slope, z′ and % CV were determined. The mean IC50 and standard deviation will be derived from duplicate curves (singlet inhibition curves from two independent dilutions) using Microsoft Excel.
(In general: TR-FRET usually uses a lanthanide donor and a delayed reading to cut background.)

Chain of Bruton's Tyrosine Kinase (Q06187 whole entry): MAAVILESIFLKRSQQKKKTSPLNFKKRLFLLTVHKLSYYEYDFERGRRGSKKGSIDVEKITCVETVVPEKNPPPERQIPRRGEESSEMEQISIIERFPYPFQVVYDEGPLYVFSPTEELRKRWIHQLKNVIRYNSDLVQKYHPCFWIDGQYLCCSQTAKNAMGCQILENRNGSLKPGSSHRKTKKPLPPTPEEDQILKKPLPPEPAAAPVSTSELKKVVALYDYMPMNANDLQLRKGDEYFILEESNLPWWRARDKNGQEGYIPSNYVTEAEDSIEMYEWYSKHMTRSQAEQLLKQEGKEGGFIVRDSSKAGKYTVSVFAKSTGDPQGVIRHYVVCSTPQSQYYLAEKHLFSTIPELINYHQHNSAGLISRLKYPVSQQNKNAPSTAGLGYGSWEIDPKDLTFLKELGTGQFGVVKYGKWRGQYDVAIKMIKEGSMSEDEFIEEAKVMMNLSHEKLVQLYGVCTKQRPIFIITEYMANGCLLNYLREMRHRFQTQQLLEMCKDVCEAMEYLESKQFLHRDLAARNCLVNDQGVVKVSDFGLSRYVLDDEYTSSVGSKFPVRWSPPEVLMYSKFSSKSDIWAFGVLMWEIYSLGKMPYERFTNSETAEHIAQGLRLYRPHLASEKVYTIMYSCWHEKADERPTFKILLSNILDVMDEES

For the molecule `CN1CCC(c2ccc(Nc3cc(-c4ccnc(-n5ncc6cc(C(C)(C)C)cc(F)c6c5=O)c4CO)nn(C)c3=O)nc2)CC1` [Compound 1, 6-tert-Butyl-8-fluoro-2-{3-hydroxymethyl-4-[1-methyl-5-(1′-methyl-1′,2′,3′,4′,5′,6′-hexahydro-[3,4′]bipyridinyl-6-ylamino)-6-oxo-1,6-dihydro-pyridazin-3-yl]-pyridin-2-yl}-2H-phthalazin-1-one], the “Btk inhibitor potency (FRET)” value was “very potent”. Where the note is “inactivated state of BTK, 18-24 h at 14° C.”, the IC50 is 0.4 nM.

The record behind these values is US20150290192A1, “INHIBITORS OF BRUTON'S TYROSINE KINASE” (HOFFMANN-LA ROCHE INC., priority 2012, published 2015).
